Measured values reported in patent US12599672B2, “KRAS proteolysis targeting chimeras” (PAQ Therapeutics Inc., priority 2023, dated 2026).

Assays:
KRAS G12D = biological target: T1, KRAS G12D (Homo sapiens, UniProt P01116, G12D); assay: KRAS G12D HiBit assay; format: cell-based; conditions: AsPc-1-KRAS (G12D)-HiBit-KI cell, compound treatment for 24 hours; for DC50: absolute DC50
T1 construct: AsPc-1-KRAS (G12D)-HiBit-KI cell (Pharmaron); host or cells: AsPc-1-KRAS (G12D)-HiBit-KI cells (HiBiT knock-in at the endogenous KRAS locus)
T1 sequence (P01116 1-188 isoform P01116-2 G12D): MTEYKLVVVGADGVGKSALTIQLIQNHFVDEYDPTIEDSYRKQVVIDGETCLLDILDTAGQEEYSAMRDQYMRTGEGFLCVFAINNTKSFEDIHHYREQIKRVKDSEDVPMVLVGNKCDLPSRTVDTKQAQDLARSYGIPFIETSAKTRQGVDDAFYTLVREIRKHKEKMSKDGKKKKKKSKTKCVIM
Procedure, shortened: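 HiBiT luminescence, detected by adding lytic buffer, substrate and LgBiT protein, served as the KRAS G12D read-out. Compounds, serially diluted 3-fold over 10 points from 0.3 mM DMSO stock, were on cells for 24 h; percent inhibition normalized to cells given 0.1% DMSO only.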

KRAS G12V = biological target: T2, KRAS G12V (Homo sapiens, UniProt P01116, G12V); assay: KRAS G12V HiBit assay; format: cell-based; conditions: SW620-KRAS (G12V)-HiBit-KI cells, compound treatment for 24 hours, class symbols
T2 construct: SW620-KRAS (G12V)-HiBit-KI cell (Pharmaron); host or cells: SW620-KRAS (G12V)-HiBit-KI cells (HiBiT knock-in at the endogenous KRAS locus)
T2 sequence (P01116 1-188 isoform P01116-2 G12V): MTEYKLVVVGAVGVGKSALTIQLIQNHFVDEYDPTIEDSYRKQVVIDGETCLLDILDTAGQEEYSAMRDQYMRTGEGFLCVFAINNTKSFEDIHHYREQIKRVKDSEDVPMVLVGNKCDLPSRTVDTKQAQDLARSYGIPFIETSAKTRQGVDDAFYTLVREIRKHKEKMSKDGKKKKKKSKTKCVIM
Procedure, shortened: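 Luminescence from lytic Nano-Glo HiBiT detection with LgBiT read KRAS G12V levels after 24 h compound exposure. Dilutions were 10-point, 3-fold, from a 0.3 mM DMSO stock. Degradation activity was normalised to cells given 0.1% DMSO alone.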

[1] = numeric bounds given in place of class symbols

| DC50 (KRAS G12D; class symbols) | DC50 (KRAS G12V) | DC50 (KRAS G12D; [1]) | Dmax (KRAS G12D; class symbols) | Compound |
| --- | --- | --- | --- | --- |
| < 100 nM | 10 to 100 nM | – | – | CCc1c(F)ccc2cc(O)cc(-c3ncc4c(N5CCC[C@@](C)(O)C5)nc(OC[C@@]56CCCN5[C@H](CCCN5CCC7(CC5)CC(N5CCC(c8ccc9c(c8)n(C)c(=O)n9C8CCC(=O)NC8=O)CC5)C7)CC6)nc4c3F)c12 (stereo partly drawn) [Compound 472, 3-(5-(1-(7-(3-((3R,7aS)-7a-(((7-(8-Ethyl-7-fluoro-3-hydroxynaphthalen-1-yl)-8-fluoro-4-((R)-3-hydroxy-3-methylpiperidin-1-yl)pyrido[4,3-d]pyrimidin-2-yl)oxy)methyl)hexahydro-1H-pyrrolizin-3-yl)propyl)-7-azaspiro[3.5]nonan-2-yl)piperidin-4-yl)-3-methyl-2-oxo-2,3-dihydro-1H-benzo[d]imidazol-1-yl) piperidine-2,6-dione] |
| < 100 nM | > 100 nM | – | – | C#Cc1c(F)ccc2cccc(-c3ncc4c(N5CCC[C@@](C)(O)C5)nc(OCC5(CN6CCC(CN7CCC(c8cccc9c8n(C)c(=O)n9C8CCC(=O)NC8=O)CC7)CC6)CC5)nc4c3F)c12 (stereo partly shown) [Compound 60] |
| – | > 100 nM | > 100 nM | – | CCc1c(F)ccc2cc(O)cc(-c3ncc4c(N5CCC[C@@](C)(O)C5)nc(OC[C@@]56CCCN5C(COCCCN5CCC(c7ccc8c(c7)n(C)c(=O)n8C7CCC(=O)NC7=O)CC5)CC6)nc4c3F)c12 (stereo partly drawn) [Compound 490, 3-(5-(1-(3-(((7aS)-7a-(((7-(8-ethyl-7-fluoro-3-hydroxynaphthalen-1-yl)-8-fluoro-4-((R)-3-hydroxy-3-methylpiperidin-1-yl)pyrido[4,3-d]pyrimidin-2-yl)oxy)methyl)hexahydro-1H-pyrrolizin-3-yl)methoxy)propyl)piperidin-4-yl)-3-methyl-2-oxo-2,3-dihydro-1H-benzo[d]imidazol-1-yl)piperidine-2,6-dione] |
| > 300 nM | > 100 nM | – | 15 to 50% | C[C@H]1CN(CC(=O)N2CCC(CN3CCC(c4ccc5c(c4)n(C)c(=O)n5C4CCC(=O)NC4=O)CC3)CC2)CCCN1c1nccc(-c2noc([C@@]3(C)CCCc4sc(N)c(C#N)c43)n2)n1 (stereo partly drawn) [Compound 210, (4S)-2-amino-4-(3-{2-[(2S)-4-{2-[4-({4-[1-(2,6-dioxopiperidin-3-yl)-3-methyl-2-oxo-1,3-benzodiazol-5-yl]piperidin-1-yl}methyl)piperidin-1-yl]-2-oxoethyl}-2-methyl-1,4-diazepan-1-yl]pyrimidin-4-yl}-1,2,4-oxadiazol-5-yl)-4-methyl-6,7-dihydro-5H-1-benzothiophene-3-carbonitrile] |
| < 100 nM | < 10 nM | – | – | CCc1c(F)ccc2cc(O)cc(-c3ncc4c(N5CCC[C@@](C)(O)C5)nc(OC[C@@]56CCCN5[C@H](CN(C)C(=O)c5ccc(CN7CCC(c8ccc9c(c8)n(C)c(=O)n9C8CCC(=O)NC8=O)CC7)cc5)CC6)nc4c3F)c12 (stereo partly drawn) [Compound 503, 4-((4-(1-(2,6-dioxopiperidin-3-yl)-3-methyl-2-oxo-2,3-dihydro-1H-benzo[d]imidazol-5-yl)piperidin-1-yl)methyl)-N-(((3S,7aS)-7a-(((7-(8-ethyl-7-fluoro-3-hydroxynaphthalen-1-yl)-8-fluoro-4-((R)-3-hydroxy-3-methylpiperidin-1-yl)pyrido[4,3-d]pyrimidin-2-yl)oxy)methyl)hexahydro-1H-pyrrolizin-3-yl)methyl)-N-methylbenzamide] |
| – | > 100 nM | > 100 nM | – | CCc1c(F)ccc2cc(O)cc(-c3ncc4c(N5CCC[C@@](C)(O)C5)nc(OC[C@@]56CCCN5[C@H](COC(=O)N5CCC(C#Cc7cccc8c7n(C)c(=O)n8C7CCC(=O)NC7=O)CC5)CC6)nc4c3F)c12 (stereo partly drawn) [Compound 403, ((3S,7aS)-7a-(((7-(8-ethyl-7-fluoro-3-hydroxynaphthalen-1-yl)-8-fluoro-4-((R)-3-hydroxy-3-methylpiperidin-1-yl)pyrido[4,3-d]pyrimidin-2-yl)oxy)methyl)hexahydro-1H-pyrrolizin-3-yl)methyl 4-((1-(2,6-dioxopiperidin-3-yl)-3-methyl-2-oxo-2,3-dihydro-1H-benzo[d]imidazol-4-yl)ethynyl)piperidine-1-carboxylate] |
| > 300 nM | > 100 nM | – | – | C#Cc1c(F)ccc2cccc(-c3ncc4c(N5CCC[C@@](C)(O)C5)nc(OCC5(CN6CCN(CC7CCN(c8cccc9c8n(C)c(=O)n9C8CCC(=O)NC8=O)CC7)CC6)CC5)nc4c3F)c12 (stereo partly shown) [Compound 78] |
| < 100 nM | 10 to 100 nM | – | – | C#Cc1c(F)ccc2cc(O)cc(-c3ncc4c(N5CCC[C@@](C)(O)C5)nc(OC[C@@]56CCCN5[C@H](COC(=O)N5CCC(OCCC#Cc7cccc8c7n(C)c(=O)n8C7CCC(=O)NC7=O)CC5)CC6)nc4c3F)c12 (stereo partly drawn) [Compound 127, ((3S,7aS)-7a-(((7-(8-Ethynyl-7-fluoro-3-hydroxynaphthalen-1-yl)-8-fluoro-4-((R)-3-hydroxy-3-methylpiperidin-1-yl)pyrido[4,3-d]pyrimidin-2-yl)oxy)methyl)hexahydro-1H-pyrrolizin-3-yl)methyl 4-((4-(1-(2,6-dioxopiperidin-3-yl)-3-methyl-2-oxo-2,3-dihydro-1H-benzo[d]imidazol-4-yl)but-3-yn-1-yl)oxy)piperidine-1-carboxylate] |
| > 300 nM | > 100 nM | – | – | C#Cc1c(F)ccc2cc(O)cc(-c3ncc4c(N5CCC[C@@](C)(O)C5)nc(OC[C@@]56CCCN5[C@H](COC(=O)N5CCC(CN7CCC(c8ccc9c(c8)n(C8CCC(=O)NC8=O)c(=O)n9C)CC7)CC5)CC6)nc4c3F)c12 (stereo partly shown) [Compound 135] |
| < 100 nM | < 10 nM | – | – | CCc1c(F)ccc2cc(O)cc(-c3ncc4c(N5CCC[C@@H]5CO)nc(OC[C@@]56CCCN5[C@H](COC(=O)N5CCC7(CC5)CC(N5CCC(c8ccc9c(c8)n(C)c(=O)n9C8CCC(=O)NC8=O)CC5)C7)CC6)nc4c3F)c12 (stereo partly drawn) [Compound 352, ((3S,7aS)-7a-(((7-(8-ethyl-7-fluoro-3-hydroxynaphthalen-1-yl)-8-fluoro-4-((R)-2-(hydroxymethyl)pyrrolidin-1-yl)pyrido[4,3-d]pyrimidin-2-yl)oxy)methyl)hexahydro-1H-pyrrolizin-3-yl)methyl 2-(4-(1-(2,6-dioxopiperidin-3-yl)-3-methyl-2-oxo-2,3-dihydro-1H-benzo[d]imidazol-5-yl)piperidin-1-yl)-7-azaspiro[3.5]nonane-7-carboxylate] |
| > 300 nM | > 100 nM | – | 15 to 50% | CCc1c(F)ccc2cccc(-c3ncc4c(N5CCC[C@@](C)(O)C5)nc(OC[C@@]56CCCN5[C@H](COC(=O)NCCOCCOCCOCCOc5ccc7c(c5)n(C)c(=O)n7C5CCC(=O)NC5=O)CC6)nc4c3F)c12 (stereo partly drawn) [Compound 105, ((3S,7aS)-7a-(((7-(8-ethyl-7-fluoronaphthalen-1-yl)-8-fluoro-4-((R)-3-hydroxy-3-methylpiperidin-1-yl)pyrido[4,3-d]pyrimidin-2-yl)oxy)methyl)hexahydro-1H-pyrrolizin-3-yl)methyl (2-(2-(2-(2-((1-(2,6-dioxopiperidin-3-yl)-3-methyl-2-oxo-2,3-dihydro-1H-benzo[d]imidazol-5-yl)oxy)ethoxy)ethoxy)ethoxy)ethyl) carbamate] |
| < 100 nM | 10 to 100 nM | – | – | C#Cc1c(F)ccc2cc(O)cc(-c3ncc4c(N5CCC[C@@](C)(O)C5)nc(OC[C@@]56CCCN5[C@H](COC(=O)N5CCC(CN7CCC(c8cccc9c8n(C)c(=O)n9C8CCC(=O)NC8=O)CC7)CC5)CC6)nc4c3F)c12 (stereo partly shown) [Compound 133] |
| < 100 nM | > 100 nM | – | > 50% | C#Cc1c(F)ccc2cc(O)cc(-c3ncc4c(N5CCCC(F)(F)C5)nc(OCC5(CN6CCN(CC7CCN(c8ccc9c(c8)n(C)c(=O)n9C8CCC(=O)NC8=O)CC7)CC6)CC5)nc4c3F)c12 (stereo not shown) [Compound 17, 3-(5-(4-((4-((1-(((4-(3,3-Difluoropiperidin-1-yl)-7-(8-ethynyl-7-fluoro-3-hydroxynaphthalen-1-yl)-8-fluoropyrido[4,3-d]pyrimidin-2-yl)oxy)methyl)cyclopropyl)methyl)piperazin-1-yl)methyl)piperidin-1-yl)-3-methyl-2-oxo-2,3-dihydro-1H-benzo[d]imidazol-1-yl) piperidine-2,6-dione] |
| > 300 nM | > 100 nM | – | 15 to 50% | CCc1c(F)ccc2cccc(-c3ncc4c(N5CCC[C@@](C)(O)C5)nc(OC[C@@]56CCCN5[C@H](COC(=O)NCCOCCOCCOc5ccc7c(c5)n(C)c(=O)n7C5CCC(=O)NC5=O)CC6)nc4c3F)c12 (stereo partly drawn) [Compound 104, ((3S,7aS)-7a-(((7-(8-ethyl-7-fluoronaphthalen-1-yl)-8-fluoro-4-((R)-3-hydroxy-3-methylpiperidin-1-yl)pyrido[4,3-d]pyrimidin-2-yl)oxy)methyl)hexahydro-1H-pyrrolizin-3-yl)methyl (2-(2-(2-((1-(2,6-dioxopiperidin-3-yl)-3-methyl-2-oxo-2,3-dihydro-1H-benzo[d]imidazol-5-yl)oxy)ethoxy)ethoxy)ethyl) carbamate] |
| > 300 nM | > 100 nM | – | – | C#Cc1c(F)ccc2cccc(-c3ncc4c(N5CCC[C@@](C)(O)C5)nc(OCC5(CN6CCC(N7CCC(c8cccc9c8n(C)c(=O)n9C8CCC(=O)NC8=O)CC7)CC6)CC5)nc4c3F)c12 (stereo partly shown) [Compound 74] |
